Reference: patent US11117871B2, “Crystalline forms of GSK1278863, preparation method and pharmaceutical use thereof” (GlaxoSmithKline Intellectual Property (No.2) Limited, priority 2017, dated 2021)
Converted amounts (≈) assume the structure as drawn.

What was measured:
Format in all cases: physicochemical
[1] = Hygroscopicity by dynamic vapor sorption (DVS); conditions: for Hygroscopicity (in words): 25° C./80% RH; for Weight gain under 80% Relative Humidity: DVS, 25° C., 80% RH
Experimental: Dynamic vapor sorption (DVS) was applied to test hygroscopicity of Form CS1, Form CS9 and the prior art solid with about 10 mg of samples under 25 °C. The DVS plots of Form CS1, Form CS9 and the prior art solid are substantially as depicted in FIG. 10, FIG. 11 and FIG. 12.

[2] = Stability of crystalline form in drug products (tablets); conditions: for Crystalline form before and after formulation process (in words): blending and tableting at 5 KN±1 KN; for Crystalline form of drug substance in the drug products after storage (in words): tablets, 40° C., 1 month
Experimental: (§1) Form CS1 or Form CS9 of GSK1278863, microcrystalline cellulose, croscarmellose sodium and magnesium stearate were weighed according to formulation in Table 14 and blended for 2 minutes. The tablets were prepared using a manual tablet press at 5 KN±1 KN pressure with a φ7 mm round tooling. The tablets tablet weight is 100 mg±1 mg. The obtained tablets were packed in 35 cc HDPE bottles (one tablet per bottle) with 1 g desiccant. The bottles were sealed with a sealer.
The above obtained tablets were stored under 40° C./[…] condition for 1 month. […] The results are shown in Table 16, which indicate that Form CS1 and Form CS9 have good stability in the drug products.

[3] = Flowability by compressibility index (USP 1174); conditions: for Bulk density: 5 mL measuring cylinder, before tapping; for Tapped density: 500 taps; for Compressibility index: (Tapped Density−Bulk Density)/Tapped Density×100%; for Flowability: scale of USP 1174 by compressibility index
Experimental: According to the United States Pharmacopeia (USP) 1174, flowability of Form CS1 and Form CS9 of the present disclosure were evaluated by the compressibility index. The bulk density, tapped density of Form CS1 and Form CS9 were tested, and compressibility index was calculated.
1. Test Method • Samples: Form CS1 and Form CS9 • Instrument: Tap density tester • Utensil: 5 mL measuring cylinder • Number of tapping: 500 times • Bulk density=m/vQ (Mass/volume before tapping) • Tapped density=m/vt (Mass/volume after tapping)
2. Calculation Formula: Compressibility Index (%)=(Tapped Density−Bulk Density)/Tapped Density×100%

[4] = Kinetic solubility in SGF, FeSSIF, FaSSIF and pure water (HPLC); conditions: for Solubility (in words): SGF, FeSSIF, FaSSIF and pure water
Description: Solubility test method according to the Chinese Pharmacopoeia was used and different pHs of different organs in human body were considered. According to the above two references, a solvent media set with four pH values range from 1.2 to 7.5 were designed in the present disclosure. Specifically: SGF (Simulated gastric fluids, pH=1.8), FeSSIF (Fed state simulated intestinal fluids, pH=5.0), FaSSIF (Fasted state simulated intestinal fluids, pH=6.5), and pure water were used.
Form CS1 and Form CS9 of the present disclosure were suspended into SGF, FeSSIF, FaSSIF and H2O to obtain saturated solutions. The solutions were sampled at fixed time points. Concentrations of the saturated solutions were measured by HPLC to measure the kinetic solubility of Form CS1 and Form CS9.

[5] = Physical stability of drug substance on storage (XRPD before/after); conditions: for Solid form after storage: 3 months, XRPD; for Time for which crystalline form of drug substance doesn't change on storage: 40° C./75% RH and 60° C./75% RH
Experimental: Form CS1 was stored under different conditions of 25° C./60% RH, 40° C./75% RH and 60° C./75% RH. The XRPD pattern overlay before and after being stored is substantially as depicted in FIG. 13, FIG. 14 and FIG. 15.
Form CS9 was stored under different conditions of 25° C./60% RH, 40° C./75% RH and 60° C./75% RH. The XRPD pattern overlay before and after being stored is substantially as depicted in FIG. 16, FIG. 17 and FIG. 18.

[6] = In vitro dissolution of tablets (Chinese Pharmacopoeia 2015 <0931>, paddle); conditions: tablet, pH=6.8 phosphate buffer + 1% SDS, 37° C., 75 rpm
Experimental: as §1
In vitro dissolution test was performed on obtained tablets and dissolution method according to Chinese Pharmacopoeia 2015<0931> was used. The conditions are as follows:
Medium: pH=6.8 phosphate buffer solution+1% sodium dodecyl sulfate aqueous solution

SMILES | Hygroscopicity (in words) [1] | Weight gain under 80% Relative Humidity [1] | Crystalline form before and after formulation process (in words) [2] | Crystalline form of drug substance in the drug products after storage (in words) [2] | Bulk density [3] | Tapped density [3] | Compressibility index [3] | Flowability [3] | Kinetic solubility ([4]; FaSSIF (pH=6.5), 24 h) | Kinetic solubility ([4]; H2O, 24 h) | Kinetic solubility ([4]; SGF (pH=1.8), 24 h) | Solubility (in words) [4] | Solid form after storage ([5]; 25° C./60% RH) | Time for which crystalline form of drug substance doesn't change on storage ([5]; 25° C./60% RH) | Solid form after storage ([5]; 40° C./75% RH) | Solid form after storage ([5]; 60° C./75% RH) | further results
O=C(O)CNC(=O)C1C(=O)N(C2CCCCC2)C(=O)N(C2CCCCC2)C1=O [The prior art solid, reference compound] | higher hygroscopicity | 1.14% | – | – | – | – | – | – | – | – | – | – | – | – | – | – | Weight gain under 80% Relative Humidity ([1]; listed as prior art solid): 1.14%
O=C(O)CNC(=O)C1C(=O)N(C2CCCCC2)C(=O)N(C2CCCCC2)C1=O [Form CS9] | not hygroscopic | 0.22% | doesn't change | does not change | 0.11 g/mL | 0.14 g/mL | 21% | Passable (21%-25%, passable flowability) | 81 µg/mL | 60 µg/mL | 9.3 µg/mL | good solubility | Form CS9 | at least 3 months | Form CS9 | Form CS9 | Kinetic solubility ([4]; FaSSIF (pH=6.5), 1 h): 58 µg/mL; Kinetic solubility ([4]; FaSSIF (pH=6.5), 4 h): 81 µg/mL; Kinetic solubility ([4]; FeSSIF (pH=5.0), 1 h): 150 µg/mL; Kinetic solubility ([4]; FeSSIF (pH=5.0), 4 h): 170 µg/mL; Kinetic solubility ([4]; FeSSIF (pH=5.0), 24 h): 140 µg/mL; Kinetic solubility ([4]; H2O, 1 h): 20 µg/mL; Kinetic solubility ([4]; H2O, 4 h): 38 µg/mL; Kinetic solubility ([4]; SGF (pH=1.8), 1 h): 3.9 µg/mL; Kinetic solubility ([4]; SGF (pH=1.8), 4 h): 4.2 µg/mL
O=C(O)CNC(=O)C1C(=O)N(C2CCCCC2)C(=O)N(C2CCCCC2)C1=O [Form CS1] | not hygroscopic | 0.53% | doesn't change | does not change | 0.15 g/mL | 0.19 g/mL | 21% | Passable (21%-25%, passable flowability) | 27 µg/mL | 16 µg/mL | 3 µg/mL | good solubility | Form CS1 | at least 3 months | Form CS1 | Form CS1 | Cumulative drug release ([6]; 5 min): 0.0%; Cumulative drug release ([6]; 10 min): 67.7%; Cumulative drug release ([6]; 20 min): 75.8%; Cumulative drug release ([6]; 30 min): 84.8%; Cumulative drug release ([6]; 45 min): 90.1%; Cumulative drug release ([6]; 60 min): 95.2%; Cumulative drug release ([6]; 90 min): 98.3%; Cumulative drug release ([6]; 120 min): 102.5%; solubility kinetic at 1 h ([4]; FaSSIF (fasted state simulated intestinal fluid), pH 6.5, fassif, thermodynamic from solid, FaSSIF (pH=6.5), 1 h): 63 µg/mL (≈ 160 µM); solubility kinetic at 4 h ([4]; FaSSIF (fasted state simulated intestinal fluid), pH 6.5, fassif, thermodynamic from solid, FaSSIF (pH=6.5), 4 h): 50 µg/mL (≈ 127 µM); solubility kinetic at 1 h ([4]; FeSSIF (fed state simulated intestinal fluid), pH 5, fessif, thermodynamic from solid, FeSSIF (pH=5.0), 1 h): 190 µg/mL (≈ 483 µM); solubility kinetic at 4 h ([4]; FeSSIF (fed state simulated intestinal fluid), pH 5, fessif, thermodynamic from solid, FeSSIF (pH=5.0), 4 h): 190 µg/mL (≈ 483 µM); solubility kinetic at 24 h ([4]; FeSSIF (fed state simulated intestinal fluid), pH 5, fessif, thermodynamic from solid, FeSSIF (pH=5.0), 24 h): 160 µg/mL (≈ 407 µM); solubility kinetic at 1 h ([4]; SGF (simulated gastric fluid), pH 1.8, simulated gastric fluid, thermodynamic from solid, SGF (pH=1.8), 1 h): 3.1 µg/mL (≈ 7.88 µM); solubility kinetic at 4 h ([4]; SGF (simulated gastric fluid), pH 1.8, simulated gastric fluid, thermodynamic from solid, SGF (pH=1.8), 4 h): 3.1 µg/mL (≈ 7.88 µM); solubility kinetic at 1 h ([4]; pure water, water, thermodynamic from solid, H2O, 1 h): 14 µg/mL (≈ 35.6 µM); solubility kinetic at 4 h ([4]; pure water, water, thermodynamic from solid, H2O, 4 h): 26 µg/mL (≈ 66.1 µM)
